The values below come from patent publication US20230105667A1, “MESENCHYMAL STROMAL CELLS AND EXTRACELLULAR VESICLES FOR TREATING VIRAL INFECTIONS, INFLAMMATION, AND TISSUE FIBROSIS” (EXOSTEM BIOTEC LTD., priority 2020, published 2023).

The subject of this experiment is Immortalized human bronchial epithelial (HBE) cells. The class given is cell-based. As to conditions: HBE cells with S1 peptide; EVs, drugs alone or combined.

With `C=C(C)[C@@H]1CCC(C)=C[C@H]1c1c(O)cc(CCCCC)cc1O` [CBD, cannabidiol], the “reduction in inflammation (TNFα expression)” value is “modest reduction in inflammation”.

As for `CN(C)C(=N)N=C(N)N` [metformin], the “reduction in inflammation (TNFα expression)” value is “modest reduction in inflammation”.
